Test results reported in ChEMBL document CHEMBL5042531, “N-Substituted 5-(1H-Indol-2-yl)-2-methoxyanilines Are Allosteric Inhibitors of the Linoleate Oxygenase Activity of Selected Mammalian ALOX15 Orthologs: Mechanism of Action” (J Med Chem, 2022).
Values belong to the molecule of their own block, whether it stands above or below them. Calls of active or inactive are those of the source. The rule behind the calls is not given here.

Assays:
Oryctolagus cuniculus [1] = organism: Oryctolagus cuniculus; test: Effect on rabbit wild type ALOX15 Ile418Ala mutant-mediated product pattern assessed as reduction in 12-H(p)ETE formation using arachidonic acid as substrate by 4 uM by RP-HPLC analysis
[2] = target: T1, Polyunsaturated fatty acid lipoxygenase ALOX15 (Oryctolagus cuniculus) (UniProt P12530); test: Inhibition of wild type rabbit N-terminal His-tagged ALOX15 expressed in Escherichia coli assessed as decrease in Kcat using arachidonic acid as substrate
T1 sequence (whole entry): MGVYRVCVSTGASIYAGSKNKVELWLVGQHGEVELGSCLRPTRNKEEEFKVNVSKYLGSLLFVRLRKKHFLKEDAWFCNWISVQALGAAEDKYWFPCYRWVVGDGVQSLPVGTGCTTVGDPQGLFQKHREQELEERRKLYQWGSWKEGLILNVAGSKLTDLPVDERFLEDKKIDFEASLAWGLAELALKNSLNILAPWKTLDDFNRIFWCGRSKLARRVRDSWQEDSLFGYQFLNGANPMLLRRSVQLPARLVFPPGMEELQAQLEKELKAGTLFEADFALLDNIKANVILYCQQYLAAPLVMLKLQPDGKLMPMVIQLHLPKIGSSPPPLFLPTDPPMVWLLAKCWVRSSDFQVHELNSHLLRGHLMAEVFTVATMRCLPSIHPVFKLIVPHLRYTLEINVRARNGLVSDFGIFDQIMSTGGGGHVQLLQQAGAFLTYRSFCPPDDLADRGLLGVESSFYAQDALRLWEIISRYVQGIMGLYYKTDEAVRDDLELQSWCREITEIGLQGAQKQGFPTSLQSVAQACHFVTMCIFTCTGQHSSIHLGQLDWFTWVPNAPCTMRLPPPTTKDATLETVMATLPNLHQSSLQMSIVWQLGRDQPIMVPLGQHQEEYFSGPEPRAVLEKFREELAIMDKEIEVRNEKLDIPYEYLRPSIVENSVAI

[3] = target: T1, Polyunsaturated fatty acid lipoxygenase ALOX15 (Oryctolagus cuniculus); test: Inhibition of wild type rabbit N-terminal His-tagged ALOX15 expressed in Escherichia coli assessed as effect on Km using linoleic acid as substrate
[4] = target: T2, Polyunsaturated fatty acid lipoxygenase ALOX15 (Mus musculus) (UniProt P39654); test: Inhibition of recombinant mouse N-terminal His-tagged ALOX15 expressed in Escherichia coli Rosetta2(DE3)pLysS at 2 uM using arachidonic acid as substrate by HPLC analysis
T2 sequence (whole entry): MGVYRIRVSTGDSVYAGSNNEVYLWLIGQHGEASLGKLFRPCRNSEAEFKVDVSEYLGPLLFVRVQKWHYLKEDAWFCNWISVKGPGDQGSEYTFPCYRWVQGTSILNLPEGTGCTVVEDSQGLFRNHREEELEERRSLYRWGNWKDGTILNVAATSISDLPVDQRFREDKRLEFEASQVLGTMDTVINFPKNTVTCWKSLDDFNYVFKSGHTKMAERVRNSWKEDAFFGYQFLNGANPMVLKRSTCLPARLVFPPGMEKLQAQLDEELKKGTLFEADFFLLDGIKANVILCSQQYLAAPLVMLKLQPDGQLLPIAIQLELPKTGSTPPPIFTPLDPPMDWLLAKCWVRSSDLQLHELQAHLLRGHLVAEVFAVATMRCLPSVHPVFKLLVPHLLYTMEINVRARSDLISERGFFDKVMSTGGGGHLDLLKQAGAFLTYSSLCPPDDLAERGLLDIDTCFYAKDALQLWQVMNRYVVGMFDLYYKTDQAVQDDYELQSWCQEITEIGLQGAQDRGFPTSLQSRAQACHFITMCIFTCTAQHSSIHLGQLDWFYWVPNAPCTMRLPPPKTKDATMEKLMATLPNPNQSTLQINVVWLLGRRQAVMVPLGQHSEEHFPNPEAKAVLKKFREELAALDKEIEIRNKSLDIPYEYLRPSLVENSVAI

[5] = target: T1, Polyunsaturated fatty acid lipoxygenase ALOX15 (Oryctolagus cuniculus); test: Inhibition of wild type rabbit N-terminal His-tagged ALOX15 expressed in Escherichia coli assessed as decrease in Kcat using linoleic acid as substrate
[6] = target: T1, Polyunsaturated fatty acid lipoxygenase ALOX15 (Oryctolagus cuniculus); test: Effect on rabbit wild type ALOX15-mediated product pattern using arachidonic acid as substrate by 4 uM by RP-HPLC analysis
[7] = target: T2, Polyunsaturated fatty acid lipoxygenase ALOX15 (Mus musculus); test: Inhibition of recombinant mouse N-terminal His-tagged ALOX15 expressed in Escherichia coli Rosetta2(DE3)pLysS at 2 uM using linoleic acid as substrate by HPLC analysis
[8] = target: T1, Polyunsaturated fatty acid lipoxygenase ALOX15 (Oryctolagus cuniculus); test: Selectivity ratio of IC50 for inhibition of wild type Rabbit N-terminal His-tagged ALOX15 expressed in Escherichia coli using linoleic acid as substrate to IC50 for inhibition of wild type rabbit N-terminal His-tagged ALOX15 expressed in Escherichia coli using arachidonic acid as substrate by spectrophotometric assay
[9] = target: T3, Polyunsaturated fatty acid lipoxygenase ALOX15 (Oryctolagus cuniculus, UniProt P12530); test: Non-competitive inhibition of wild type rabbit N-terminal His-tagged ALOX15 expressed in Escherichia coli assessed as inhibition constant using linoleic acid as substrate
T3 sequence (P12530 whole entry): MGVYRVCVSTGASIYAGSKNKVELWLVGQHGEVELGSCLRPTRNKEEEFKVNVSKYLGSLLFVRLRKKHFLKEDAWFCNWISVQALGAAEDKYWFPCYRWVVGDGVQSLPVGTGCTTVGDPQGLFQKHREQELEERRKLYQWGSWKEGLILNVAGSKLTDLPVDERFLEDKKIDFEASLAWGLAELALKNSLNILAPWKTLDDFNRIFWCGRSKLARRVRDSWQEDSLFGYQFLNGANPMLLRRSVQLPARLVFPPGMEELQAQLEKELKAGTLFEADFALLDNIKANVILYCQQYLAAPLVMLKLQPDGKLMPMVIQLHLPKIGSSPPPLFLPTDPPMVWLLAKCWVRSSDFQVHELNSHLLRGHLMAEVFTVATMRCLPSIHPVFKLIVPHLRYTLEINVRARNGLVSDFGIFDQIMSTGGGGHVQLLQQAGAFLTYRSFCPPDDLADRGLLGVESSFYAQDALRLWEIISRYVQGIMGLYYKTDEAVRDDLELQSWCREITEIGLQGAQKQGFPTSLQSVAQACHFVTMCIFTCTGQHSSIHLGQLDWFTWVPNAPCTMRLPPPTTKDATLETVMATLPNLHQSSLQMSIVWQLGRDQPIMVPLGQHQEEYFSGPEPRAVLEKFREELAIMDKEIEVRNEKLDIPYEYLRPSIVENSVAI

[10] = target: T3, Polyunsaturated fatty acid lipoxygenase ALOX15; test: Inhibition of wild type rabbit N-terminal His-tagged ALOX15 expressed in Escherichia coli using arachidonic acid as substrate by spectrophotometric assay
[11] = target: T3, Polyunsaturated fatty acid lipoxygenase ALOX15; test: Inhibition of wild type rabbit N-terminal His-tagged ALOX15 expressed in Escherichia coli using linoleic acid as substrate by spectrophotometric assay
[12] = target: T1, Polyunsaturated fatty acid lipoxygenase ALOX15 (Oryctolagus cuniculus); test: (§1) Selectivity ratio of IC50 for inhibition of wild type rabbit N-terminal His-tagged ALOX15 expressed in Escherichia coli using linoleic acid as substrate to IC50 for inhibition of wild type rabbit N-terminal His-tagged ALOX15 expressed in Escherichia coli using arachidonic acid as substrate
[13] = Inhibition of rabbit N-terminal His-tagged ALOX15 L183E/L192E double mutant expressed in Escherichia coli linoleic acid as substrate by spectrophotometric assay; set-up: species or system Oryctolagus cuniculus
[14] = target: T3, Polyunsaturated fatty acid lipoxygenase ALOX15; test: Mixed mode inhibition of wild type Rabbit N-terminal His-tagged ALOX15 expressed in Escherichia coli assessed as inhibition constant using arachidonic acid as substrate
[15] = target: T3, Polyunsaturated fatty acid lipoxygenase ALOX15; test: Mixed mode inhibition of wild type Rabbit N-terminal His-tagged ALOX15 expressed in Escherichia coli assessed as inhibition constant using linoleic acid as substrate
[16] = Inhibition of rabbit N-terminal His-tagged ALOX15 L183E/L192E double mutant expressed in Escherichia coli arachidonic acid as substrate by spectrophotometric assay; set-up: species or system Oryctolagus cuniculus
Oryctolagus cuniculus [17] = organism: Oryctolagus cuniculus; test: Effect on rabbit wild type ALOX15 Ile418Ala mutant-mediated product pattern using arachidonic acid as substrate by 4 uM by RP-HPLC analysis
[18] = target: T4, Polyunsaturated fatty acid lipoxygenase ALOX15 (Homo sapiens) (UniProt P16050); test: as §1, with “recombinant human” for “wild type rabbit”, “coli Rosetta2(DE3)pLysS” for “coli”
T4 sequence (whole entry): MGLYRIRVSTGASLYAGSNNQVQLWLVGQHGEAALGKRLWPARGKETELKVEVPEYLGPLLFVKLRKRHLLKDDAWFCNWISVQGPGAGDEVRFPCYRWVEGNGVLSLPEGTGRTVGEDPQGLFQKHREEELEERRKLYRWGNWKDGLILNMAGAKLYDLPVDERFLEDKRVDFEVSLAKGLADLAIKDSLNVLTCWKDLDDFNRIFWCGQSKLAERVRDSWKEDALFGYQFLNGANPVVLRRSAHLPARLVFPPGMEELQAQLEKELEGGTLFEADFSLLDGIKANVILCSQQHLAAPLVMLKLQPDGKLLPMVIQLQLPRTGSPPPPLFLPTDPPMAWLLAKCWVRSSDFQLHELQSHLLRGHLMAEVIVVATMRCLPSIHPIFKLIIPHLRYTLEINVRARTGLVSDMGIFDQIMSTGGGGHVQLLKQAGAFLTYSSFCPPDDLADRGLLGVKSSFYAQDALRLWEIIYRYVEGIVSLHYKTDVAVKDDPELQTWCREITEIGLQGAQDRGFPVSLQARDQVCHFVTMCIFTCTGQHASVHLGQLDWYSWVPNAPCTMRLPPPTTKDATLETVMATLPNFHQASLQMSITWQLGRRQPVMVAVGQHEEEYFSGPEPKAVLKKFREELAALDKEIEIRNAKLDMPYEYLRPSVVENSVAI

[19] = compound: COc1ccc(-c2cc3cc(F)ccc3[nH]2)cc1NS(=O)(=O)NC(=O)OCC(C)C; test: Inhibition of wild type Rabbit N-terminal His-tagged ALOX15 expressed in Escherichia coli assessed as effect on Km using arachidonic acid as substrate; details: Oryctolagus cuniculus

Activity (Oryctolagus cuniculus [1]): Active
inhibition [2]: Active
Activity [3]: Active
inhibition [4]: inactive
Activity [5]: Active
Activity [6]: inactive
inhibition [7]: inactive
Molecule: CCCCCCCCOC(=O)NS(=O)(=O)Nc1cc(-c2cc3ccccc3[nH]2)ccc1OC

Ratio IC50 [8]: 0.02
inhibition [2]: Active
Activity [3]: Active
Ki [9]: 0.29 µM
Activity [5]: Active
IC50 [10]: 20.8 µM
IC50 [11]: 0.42 µM
Molecule: COc1ccc(-c2cc3cc(F)ccc3[nH]2)cc1NS(=O)(=O)NC(=O)OCC(C)C

Ratio IC50 [12]: 0.22
Molecule: CCCCc1ccc(S(=O)(=O)NCCc2c(-c3ccc(OC)cc3)[nH]c3ccccc23)cc1

Ratio IC50 [8]: 0.55
IC50 [13]: 7.02 µM
Ki [9]: 0.79 µM
IC50 [10]: 2.79 µM
Ki [14]: 3.13 µM
Activity [6]: inactive
Ki [15]: 0.79 µM
IC50 [16]: 4.95 µM
Activity (Oryctolagus cuniculus [17]): inactive
IC50 [11]: 1.55 µM
Molecule: CCCCCCCCOC(=O)NS(=O)(=O)Nc1cccc(-c2cc3ccccc3[nH]2)c1

Ratio IC50 [12]: 0.02
Molecule: CCCCCc1ccc(S(=O)(=O)NCCc2nc(-c3ccccn3)[nH]c2-c2ccc(OC)cc2)cc1

Ratio IC50 [12]: 0.8
Molecule: CCCCCc1ccc(S(=O)(=O)NCCc2c[nH]c3ccccc23)cc1

Ratio IC50 [8]: 0.014
IC50 [10]: 43.3 µM
IC50 [11]: 0.63 µM
Molecule: C=CCOC(=O)NS(=O)(=O)Nc1cc(-c2cc3ccccc3[nH]2)ccc1OC

Ratio IC50 [8]: 0.043
IC50 [10]: 1.08 µM
IC50 [11]: 0.047 µM
Molecule: CCCCCCCCOC(=O)NS(=O)(=O)Nc1cc(-c2cc3cc(F)ccc3[nH]2)ccc1OC

Ratio IC50 [8]: 0.023
IC50 [10]: 23.3 µM
IC50 [11]: 0.54 µM
Molecule: C=CCOC(=O)NS(=O)(=O)Nc1cc(-c2cc3cc(F)ccc3[nH]2)ccc1OC

IC50 [10]: > 50 µM
IC50 [11]: 15.4 µM
Molecule: C=CCOC(=O)NS(=O)(=O)Nc1cccc(-c2cc3ccccc3[nH]2)c1

Ratio IC50 [18]: 0.03
Molecule: COc1ccc(-c2cc3cc(F)c(F)cc3[nH]2)cc1NS(=O)(=O)NC(=O)OCC(C)C

IC50 [10]: > 50 µM
IC50 [11]: 1.45 µM
Molecule: COc1ccc(-c2cc3ccccc3[nH]2)cc1NS(=O)(=O)NC(=O)OCC(C)C

IC50 [10]: > 50 µM
IC50 [11]: 30 µM
Molecule: CC(C)COC(=O)NS(=O)(=O)Nc1cccc(-c2cc3ccccc3[nH]2)c1

B1: Polyunsaturated fatty acid lipoxygenase ALOX15 (Oryctolagus cuniculus), P12530 (protein)
chain: MGVYRVCVSTGASIYAGSKNKVELWLVGQHGEVELGSCLRPTRNKEEEFKVNVSKYLGSLLFVRLRKKHFLKEDAWFCNWISVQALGAAEDKYWFPCYRWVVGDGVQSLPVGTGCTTVGDPQGLFQKHREQELEERRKLYQWGSWKEGLILNVAGSKLTDLPVDERFLEDKKIDFEASLAWGLAELALKNSLNILAPWKTLDDFNRIFWCGRSKLARRVRDSWQEDSLFGYQFLNGANPMLLRRSVQLPARLVFPPGMEELQAQLEKELKAGTLFEADFALLDNIKANVILYCQQYLAAPLVMLKLQPDGKLMPMVIQLHLPKIGSSPPPLFLPTDPPMVWLLAKCWVRSSDFQVHELNSHLLRGHLMAEVFTVATMRCLPSIHPVFKLIVPHLRYTLEINVRARNGLVSDFGIFDQIMSTGGGGHVQLLQQAGAFLTYRSFCPPDDLADRGLLGVESSFYAQDALRLWEIISRYVQGIMGLYYKTDEAVRDDLELQSWCREITEIGLQGAQKQGFPTSLQSVAQACHFVTMCIFTCTGQHSSIHLGQLDWFTWVPNAPCTMRLPPPTTKDATLETVMATLPNLHQSSLQMSIVWQLGRDQPIMVPLGQHQEEYFSGPEPRAVLEKFREELAIMDKEIEVRNEKLDIPYEYLRPSIVENSVAI
Km [19]: Active
